From Sander's compilation of Henry's law constants
One block for each compound: values may come before it.

Test: Henry solubility constant Hcp at 298.15 K (mol/(m3 Pa))
[1] = reference: Jönsson et al. (1982)
[2] = reference: Murphy et al. (1983a)
[3] = reference: Arp and Schmidt (2004)
[4] = reference: Warner et al. (1980)
[5] = reference: Schuhfried et al. (2015)
[6] = reference: Kawamoto and Urano (1989)
[7] = reference: Dohányosová et al. (2004)
[8] = reference: Krause and Benson (1989)
[9] = reference: Morrison and Johnstone (1954)
[10] = reference: von Antropoff (1910)
[11] = reference: Souchon et al. (2004)
[12] = reference: Copolovici and Niinemets (2005)
[13] = reference: Jayasinghe et al. (1992)

Structure (SMILES): COC(C)=O [methyl ethanoate]
Henry solubility constant Hcp [3]: 0.066 | Henry solubility constant Hcp (reference: Butler and Ramchandani (1935)): 0.11 | Henry solubility constant Hcp (reference: Fenclová et al. (2014)): 0.081 | Henry solubility constant Hcp (reference: Ioffe et al. (1984)): 0.077 | Henry solubility constant Hcp (reference: Kieckbusch and King (1979b)): 0.077 | Henry solubility constant Hcp (reference: McKeown and Stowell (1927)): 0.087

Structure (SMILES): O=NO [nitrous acid]
Henry solubility constant Hcp (reference: Becker et al. (1996)): 0.47 | Henry solubility constant Hcp (reference: Becker et al. (1998)): 0.47 | Henry solubility constant Hcp (reference: Komiyama and Inoue (1978)): 0.37 | Henry solubility constant Hcp (reference: Park and Lee (1988)): 0.48

Structure (SMILES): C1=Cc2cccc3cccc1c23 [acenaphthylene]
Henry solubility constant Hcp [4]: 0.087

Structure (SMILES): COC(=O)OC [carbonic acid, dimethyl ester]
Henry solubility constant Hcp (reference: Böhme et al. (2008)): 0.16

Structure (SMILES): ClN(Cl)Cl [nitrogen trichloride]
Henry solubility constant Hcp (reference: Holzwarth et al. (1984)): 0.00099

Structure (SMILES): CCC(C)O[N+](=O)[O-] (centres undefined) [2-butyl nitrate]
Henry solubility constant Hcp (reference: Hauff et al. (1998)): 0.0044 | Henry solubility constant Hcp (reference: Luke et al. (1989)): 0.0063

Structure (SMILES): C=COC(C)=O [ethenyl ethanoate]
Henry solubility constant Hcp (reference: Böhme et al. (2008)): 0.02

Structure (SMILES): Clc1c(Cl)c(Cl)c2c(c1Cl)Oc1ccccc1O2 [1,2,3,4-tetrachlorodibenzo-p-dioxin]
Henry solubility constant Hcp (reference: Santl et al. (1994)): 0.5

Structure (SMILES): CC(C)CO [2-methyl-1-propanol]
Henry solubility constant Hcp (reference: Butler et al. (1935)): 0.83 | Henry solubility constant Hcp (reference: Snider and Dawson (1985)): 1

Structure (SMILES): [He] [helium]
Henry solubility constant Hcp (reference: Cady et al. (1922)): 3.7e-06 | Henry solubility constant Hcp (reference: Friedman (1954)): 3.8e-06 | Henry solubility constant Hcp [8]: 3.9e-06 | Henry solubility constant Hcp (reference: Lannung (1930)): 3.8e-06 | Henry solubility constant Hcp [9]: 3.7e-06 | Henry solubility constant Hcp [10]: 6.3e-06

Structure (SMILES): Clc1cc(Cl)c2c(c1Cl)Oc1ccccc1O2 [1,2,4-trichlorodibenzo-p-dioxin]
Henry solubility constant Hcp (reference: Santl et al. (1994)): 0.27

Structure (SMILES): Clc1ccc(Cl)c(-c2cccc(Cl)c2Cl)c1 [2,2',3,5'-tetrachlorobiphenyl]
Henry solubility constant Hcp [2]: 0.041

Structure (SMILES): FC(F)C(F)(F)F [pentafluoroethane]
Henry solubility constant Hcp (reference: Miguel et al. (2000)): 0.00031 | Henry solubility constant Hcp (reference: Reichl (1995)): 3.5e-05

Structure (SMILES): C[Si](C)(C)O[Si](C)(C)O[Si](C)(C)C [octamethyltrisiloxane]
Henry solubility constant Hcp (reference: Xu and Kropscott (2014)): 3.4e-07

Structure (SMILES): ClC1=C(Cl)C(Cl)(Cl)C(Cl)=C1Cl [hexachlorocyclopentadiene]
Henry solubility constant Hcp [4]: 0.0006 | Henry solubility constant Hcp (reference: Wolfe et al. (1982)): 0.00037

Structure (SMILES): O=S(=O)(F)F [sulfuryl fluoride]
Henry solubility constant Hcp (reference: Cady and Misra (1974)): 8.9e-05

Structure (SMILES): Brc1ccc(Oc2ccc(Br)cc2)cc1 [4,4'-dibromodiphenyl ether]
Henry solubility constant Hcp (reference: Charles and Destaillats (2005)): 0.073

Structure (SMILES): C[CH2][Pb]([CH2]C)([CH2]C)[CH2]C [tetraethyl lead]
Henry solubility constant Hcp (reference: Feldhake and Stevens (1963)): 1.3e-05

Structure (SMILES): II [iodine (molecular)]
Henry solubility constant Hcp (reference: Eguchi et al. (1973)): 0.028

Structure (SMILES): CCCCCO[N+](=O)[O-] [1-pentyl nitrate]
Henry solubility constant Hcp (reference: Hauff et al. (1998)): 0.0066

Structure (SMILES): CCCCc1ccccc1 [butylbenzene]
Henry solubility constant Hcp (reference: Perlinger et al. (1993)): 0.00062

Structure (SMILES): C1CCOCC1 [tetrahydropyran]
Henry solubility constant Hcp (reference: Ondo and Dohnal (2007)): 0.083

Structure (SMILES): CC(C)(C)CC(C)(C)c1ccc(O)cc1 [4-(1,1,3,3-tetramethylbutyl)-phenol]
Henry solubility constant Hcp (reference: Xie et al. (2004)): 2.3

Structure (SMILES): CCCCCCCC(=O)OC [methyl octanoate]
Henry solubility constant Hcp (reference: Aprea et al. (2007)): 0.0099

Structure (SMILES): O=C(O)CCCC(=O)O [pentanedioic acid]
Henry solubility constant Hcp (reference: Mentel et al. (2004)): 1.9e+07

Structure (SMILES): CC(CCl)OC(C)CCl (centres undefined) [bis-(2-chloroisopropyl) ether]
Henry solubility constant Hcp [6]: 0.42

Structure (SMILES): Fc1c(F)c(F)c(F)c(F)c1F [hexafluorobenzene]
Henry solubility constant Hcp (reference: Schröder et al. (2011)): 0.00029

Structure (SMILES): ClC1C(Cl)C(Cl)C(Cl)C(Cl)C1Cl (stereo not drawn) [α-1,2,3,4,5,6-hexachlorocyclohexane]
Henry solubility constant Hcp (reference: Kucklick et al. (1991)): 1.3 | Henry solubility constant Hcp (reference: Sahsuvar et al. (2003)): 1.7

Structure (SMILES): Cc1cc(C)c(N)cc1C [2,4,5-trimethylbenzenamine]
Henry solubility constant Hcp [13]: 3.9

Structure (SMILES): Cc1ccc(N)cc1C [3,4-dimethylbenzenamine]
Henry solubility constant Hcp [13]: 5.3

Structure (SMILES): FC(Cl)C(F)(F)C(F)(F)Cl (centres undefined) [1,3-dichloro-1,1,2,2,3-pentafluoro-propane]
Henry solubility constant Hcp (reference: Kutsuna (2013)): 0.00011

Structure (SMILES): COP(=O)(OC)C(O)C(Cl)(Cl)Cl (centres undefined)
Henry solubility constant Hcp [6]: > 810

Structure (SMILES): CN(Cl)Cl [N,N-dichloromethylamine]
Henry solubility constant Hcp (reference: Cimetiere and de Laat (2009)): 0.0033

Next, values leading:

Henry solubility constant Hcp [1]: 5.9e-06 | Henry solubility constant Hcp (reference: Park et al. (1997)): 7.4e-06 | Henry solubility constant Hcp (reference: Tsonopoulos and Wilson (1983)): 6.7e-06
Structure (SMILES): CCCCCC [hexane]

Henry solubility constant Hcp [2]: 0.016
Structure (SMILES): Clc1ccc(Cl)c(-c2c(Cl)cc(Cl)c(Cl)c2Cl)c1 [2,2',3,4,5',6-hexachlorobiphenyl]

Henry solubility constant Hcp (reference: Amoore and Buttery (1978)): 0.49
Structure (SMILES): C=C(C)[C@@H]1CC=C(C)C(=O)C1 [2-methyl-5-(1-methylethenyl)-2-cyclohexen-1-one]

Henry solubility constant Hcp (reference: Kish et al. (2013)): 0.4
Structure (SMILES): CCC(C)N (centres undefined) [2-butanamine]

Henry solubility constant Hcp (reference: Nguyen (2013)): 4500
Structure (SMILES): C1CNCCN1 [1,4-diazacyclohexane]

Henry solubility constant Hcp (reference: Nguyen (2013)): 200
Structure (SMILES): CN1CCN(C)CC1 [N,N'-dimethylpiperazine]

Henry solubility constant Hcp (reference: Fichan et al. (1999)): 0.00087 | Henry solubility constant Hcp [5]: 0.00036
Structure (SMILES): C=CC(=C)CCC=C(C)C [7-methyl-3-methylene-1,6-octadiene]

Henry solubility constant Hcp (reference: Chaintreau et al. (1995)): 0.98
Structure (SMILES): Cc1cncc(C)n1 [2,6-dimethylpyrazine]

Henry solubility constant Hcp (reference: Nguyen (2013)): 1400
Structure (SMILES): CC(N)CN (centres undefined) [1,2-diaminopropane]

Henry solubility constant Hcp (reference: Simpson and Lovell (1962)): 0.00072
Structure (SMILES): C#CCC [1-butyne]

Henry solubility constant Hcp (reference: Haimi et al. (2006)): 0.0048
Structure (SMILES): CCOC(C)(C)CC [2-ethoxy-2-methylbutane]

Henry solubility constant Hcp [6]: > 8.1
Structure (SMILES): O=[N+]([O-])c1ccc(Oc2c(Cl)cc(Cl)cc2Cl)cc1 [2,4,6-trichlorophenyl 4-nitrophenyl ether]

Henry solubility constant Hcp (reference: Bernauer and Dohnal (2009)): 2100 | Henry solubility constant Hcp (reference: Kim et al. (2000)): 3100
Structure (SMILES): CN1CCCC1=O [N-methyl-2-pyrrolidone]

Henry solubility constant Hcp [1]: 4.2e-06 | Henry solubility constant Hcp (reference: Park et al. (1997)): 5.5e-06
Structure (SMILES): CCCCCCC [heptane]

Henry solubility constant Hcp [7]: 0.00021
Structure (SMILES): C1=C\CCCCCC/1 [cyclooctene]

Henry solubility constant Hcp (reference: McFall et al. (2020)): 12000
Structure (SMILES): COc1cc(CCC(C)=O)ccc1O [zingerone]

Henry solubility constant Hcp (reference: Drouillard et al. (1998)): 0.16
Structure (SMILES): ClCC(Cl)CCCCCCCC(Cl)CCl (centres undefined) [1,2,10,11-tetrachloroundecane]

Henry solubility constant Hcp (reference: Bakierowska and Trzeszczyński (2003)): 0.0028
Structure (SMILES): ClC1CCCCC1 [chlorocyclohexane]

Henry solubility constant Hcp (reference: Wieland et al. (2015)): 2.9
Structure (SMILES): CCc1ncc(C)nc1C [2-ethyl-3,5-dimethylpyrazine]

Henry solubility constant Hcp (reference: Crovetto et al. (1982)): 4.2e-05 | Henry solubility constant Hcp [8]: 4.3e-05 | Henry solubility constant Hcp [9]: 4.2e-05 | Henry solubility constant Hcp [10]: 4.4e-05
Structure (SMILES): [Xe] [xenon]

Henry solubility constant Hcp (reference: Dohnal and Fenclová (1995)): 7.5
Structure (SMILES): Cc1ccc(C)c(O)c1 [1-hydroxy-2,5-dimethylbenzene]

Henry solubility constant Hcp (reference: Gibbs et al. (1991)): 2700
Structure (SMILES): CCCCNC(C)=O [N-butylacetamide]

Henry solubility constant Hcp (reference: Hartkopf and Karger (1973)): 0.0015
Structure (SMILES): Fc1ccccc1 [fluorobenzene]

Henry solubility constant Hcp (reference: Druaux et al. (1998)): 5.5 | Henry solubility constant Hcp (reference: Marin et al. (1999)): 7.1
Structure (SMILES): Cc1cnc(C)cn1 [2,5-dimethylpyrazine]

Henry solubility constant Hcp [3]: 0.014
Structure (SMILES): CC(C)(C)OC=O [(1,1-dimethylethyl)-methanoate]

Henry solubility constant Hcp (reference: Keßel et al. (2017)): 0.011
Structure (SMILES): O=C=C=C=O [carbon suboxide]

Henry solubility constant Hcp [11]: 0.026
Structure (SMILES): CCCC(=O)SC [S-methyl butanethioate]

Henry solubility constant Hcp (reference: Roberts and Pollien (1997)): 0.021 | Henry solubility constant Hcp [11]: 0.014
Structure (SMILES): CSSSC [2,3,4-trithiapentane]

Henry solubility constant Hcp [12]: 0.00018
Structure (SMILES): C=C1C=CC(C(C)C)CC1 (stereo not drawn) [β-phellandrene]

Henry solubility constant Hcp [11]: 0.014
Structure (SMILES): CCCCCCOC(C)=O [hexyl ethanoate]

Henry solubility constant Hcp [12]: 0.00035 | Henry solubility constant Hcp [5]: 0.00038
Structure (SMILES): C=C(C)[C@H]1CC=C(C)CC1 [(R)-1-methyl-4-(1-methylethenyl)-cyclohexene]

Henry solubility constant Hcp [2]: 0.027
Structure (SMILES): Clc1ccc(-c2c(Cl)ccc(Cl)c2Cl)cc1Cl [2,3,3',4',6-pentachlorobiphenyl]

Henry solubility constant Hcp (reference: Haimi et al. (2006)): 0.0019
Structure (SMILES): CCCCCC(C)(C)OC [2-methoxy-2-methylheptane]

Henry solubility constant Hcp [7]: 2e-05 | Henry solubility constant Hcp (reference: Heidman et al. (1985)): 3.1e-05
Structure (SMILES): CCC1CCCCC1 [ethylcyclohexane]

Henry solubility constant Hcp (reference: Shoor et al. (1969)): 5.5e-06 | Henry solubility constant Hcp (reference: Wetlaufer et al. (1964)): 6.3e-06
Structure (SMILES): CC(C)(C)C [dimethylpropane]

Henry solubility constant Hcp (reference: Nguyen (2013)): 190
Structure (SMILES): C1COCCN1 [1-oxa-4-azacyclohexane]

Henry solubility constant Hcp (reference: Reichl (1995)): 1.4e-05
Structure (SMILES): FC(C(F)(F)F)C(F)(F)F [1,1,1,2,3,3,3-heptafluoropropane]

Henry solubility constant Hcp (reference: Aprea et al. (2007)): 0.014 | Henry solubility constant Hcp (reference: Landy et al. (1995)): 0.0094 | Henry solubility constant Hcp (reference: Landy et al. (1996)): 0.016
Structure (SMILES): CCCCCC(=O)OCC [ethyl hexanoate]
